Measured values: US7387779B2, “Anti-angiogenic proteins and fragments and methods of use thereof” (Beth Israel Deaconess Medical Center, priority 1998, dated 2008)
“And” between values parts separate entries of the source, which are not always exact repeats. Identical values can stand only once. Like-named read-outs stand apart in the source and are kept apart here.

How the values were obtained:
[1] = system: MDAMB-435 tumor xenografts; format: in vivo; conditions: for Final Tumor Weight ± SEM: control 333.3 ± 39.61
Method: Female nude NCRNU mice, 5-6 weeks old, weighing approximately 20 grams, were implanted with 2×10^6 MDAMB-435 cells in the subaxillary mammary fat pad. When the tumors were 100 mm^3, the animals were pair-matched into treatment and control groups. Each group contained 7 tumored mice, each of which was ear-tagged and followed individually throughout the experiment. Initial doses of T8 peptide or vehicle control were given on the day of pair-matching (Day 0), and were administered via intraperitoneal (i.p.) injection at 1 mg and 2.5 mg per kg animal weight. Mice were weighed twice weekly, and tumor measurements were taken by calipers twice weekly, starting on Day 1. These tumor measurements were converted to tumor volume by the well-known formula V=W2×L/2, and mean tumor volumes were plotted against time. Mice were euthenized at the end of the treatment period. Upon termination, the mice were weighed, sacrificed and their tumors were excised. The mean tumor weight per group was calculated, and the value of (mean treated tumor weight/mean control tumor weight×100) was subtracted from 100% to give the tumor growth inhibition (TGI) for each group.
Treatment was initiated when tumor volumes reached 100 mm^3. All groups received injections bid, i.p., for 26 days.

[2] = system: MDAMB-435 tumor xenografts; assay: MDAMB-435 human breast orthotopic xenograft (Example 57); format: in vivo, nude NCRNU mice; conditions: four weeks; for Final Tumor Weight (V/Vo) ± SEM: control 3.77 ± 0.38
Method: Female nude NCRNU mice, 5-6 weeks old, weighing approximately 20 grams, were implanted with 2×10^6 MDAMB-435 cells into the subaxillary mammary fat pad. When the tumors were 100 mm^3, the animals were pair-matched into treatment and control groups. Each group contained 6-7 tumored mice, each of which was ear-tagged and followed individually throughout the experiment. Initial doses of T8 or TP3 peptide or vehicle control were given on the day of pair-matching (Day 0), and were administered via intraperitoneal (i.p.) injection at doses indicated. Mice were weighed twice weekly, and tumor measurements were taken by calipers twice weekly, starting on Day 1. These tumor measurements were converted to tumor volume by a well-known formula, (V=W^2×L/2) and mean tumor volumes as well as volume ratios (V/Vo) were plotted against time. Mice were euthanized at the end of the treatment period. Upon termination, the mice were weighed, sacrificed and their tumors were excised. The mean tumor weight per group was calculated, and the mean value (treated tumor ratio/mean control tumor ratio× 100) was subtracted from 100% to give the tumor growth inhibition (TGI) for each group.
Treatment was initiated when tumor volumes reached […]. All groups received injections I.P. daily, except for one T8-treated group, which was treated twice per week.

PC3 tumor xenografts [3] = assay: PC3 human prostate tumor xenograft (Example 58); format: in vivo, nude NCRNU mice
Method: Male nude NCRNU mice, 5-6 weeks old, weighing approximately 25 grams, 6 were implanted with 2×10^6 PC3 cells into the dorsal subcutis. When the tumors were 60 mm^3, the animals were pair-matched into treatment and control groups. Each group contained 6-7 tumored mice, each of which was ear-tagged and followed individually throughout the experiment. Initial doses of peptide or vehicle control were given on the day of pair-matching (Day 0), and were administered via intraperitoneal (i.p.) injection at doses indicated. Mice were weighed weekly, and tumor measurements were taken by calipers weekly. These tumor measurements were converted to tumor volume by a well-known formula, (V=W^2×L/2), and mean tumor volumes were plotted against time. Mice were euthenized at the end of the treatment period. Upon termination, the mice were weighed, sacrificed and their tumors were excised. The mean tumor weight per group was calculated, and the value of mean treated tumor volume or volume ratio/mean control tumor volume or volume ratio×100 was subtracted from 100% to give the tumor growth inhibition (TG1) for each group. All groups received injections I.P. daily, except for two T8-treated groups, which were treated twice per week and once a week, respectively.

[4] = system: MDAMB-435 tumor xenografts; assay: MDAMB-435 human breast tumor xenograft (Example 59); format: in vivo, nude NCRNU mice; conditions: 5.0 mg/kg i.p. daily, 3 weeks
From the text: (§1) For tests involving the MDAMB-435 model, female nude NCRNU mice, 5-6 weeks old, weighing approximately 20 grams, were implanted with 2×10^6 MDAMB-435 cells into the subaxillary mammary fat pad. For tests involving the PC3 model, male nude NCRNU mice, 5-6 weeks old, weighing approximately 25 g were implanted with 2×10^6 PC3 cells into the dorsal subcutis. When the tumors were 100 mm^3 (for the MDAMB-435 model), or 60 mm^3 (for the PC3 model), the animals were pair-matched into treatment and control groups.
(§2) Each group contained 6-7 tumored mice, each of which was ear-tagged and followed individually throughout the experiment. Initial doses of peptide or vehicle control were given on the day of pair-matching (Day 0), and were administered daily via intraperitoneal (i.p.) injection at doses indicated. Mice were weighed weekly, and tumor measurements were taken by calipers weekly, starting on Day 0. These tumor measurements were converted to tumor volume by a well-known formula, (V=W^2×L/2) and mean tumor volumes were plotted against time. Mice were euthenized at the end of the treatment period. Upon termination, the mice were weighed, sacrificed and their tumors were excised. The mean tumor weight per group was calculated, and the mean treated tumor volume/control tumor volume×100 was subtracted from 100% to give the tumor growth inhibition (TGI) for each group.

PC3 tumor xenografts [5] = assay: PC3 human prostate tumor xenograft (Example 59); format: in vivo, nude NCRNU mice; conditions: 5.0 mg/kg i.p. daily, 3 weeks
From the text: as §1, §2

[6] = system: mouse aortic endothelial cells (MAE); assay: Endothelial tube formation on Matrigel; format: cell-based; conditions: endothelial tube assay (FIGS. 30 and 31)
Method: To measure inhibition of endothelial tube formation, 320 μl of Matrigel (Collaborative Biomedical Products, Bedford, Mass., USA) was added to each well of a 24-well plate and allowed to polymerize (Grant, D. S. et al., 1994, Pathol. Res. Pract. 190:854-63). A suspension of 25,000 mouse aortic endothelial cells (MAE) in EGM-2 medium (Clonetics Corp., San Diego, Calif., USA) without antibiotic was passed into each well coated with Matrigel. The cells were treated with increasing concentrations of either Arresten, BSA, sterile PBS or the 7S domain. All assays were performed in triplicate. Cells were incubated for 24-48 hours at 37° C. and viewed using a CK2 Olympus microscope (3.3 ocular, 10× objective). The cells were then photographed using 400 DK coated TMAX film (Kodak). Cells were stained with diff-quik fixative (Sigma Chemical Company, St. Louis, Mo., USA) and photographed again. Ten fields were viewed, and the tubes counted and averaged.
Matrigel (Collaborative Biomedical Products, Bedford, Mass., USA) was added ([…]) to each well of a 24 well plate and allowed to polymerize (Grant, D. S. et al., supra). A suspension of 25,000 mouse aortic endothelial cells (MAE) in EGM-2 (Clonetics Corporation, San Diego, Calif., USA) medium without antibiotic was passed into each well coated with Matrigel. The cells were treated with either Canstatin, BSA, sterile PBS or α5-NC1 domain in increasing concentrations. All assays were performed in triplicate. Cells were incubated for 24-48 hours at 37° C. and viewed using a CK2 Olympus microscope (3.3 ocular, 10× objective). The cells were then photographed using 400 DK coated TMAX film (Kodak). Cells were stained with diff-quik fixative (Sigma Chemical Co., St. Louis, Mo., USA) and photographed again (Grant, D. S. et al., 1994, Pathol. Res. Pract. 190:854-63). Ten fields were viewed, tubes counted and averaged.
Matrigel (Collaborative Biomedical Prods., Bedford, Mass., USA) was added ([…]) to each well of a 24-well plate and allowed to polymerize (Grant, D. S. et al., 1994, Pathol. Res. Pract. 190:854-63). A suspension of 25,000 MAE cells in EGM-2 medium (Clonetics Corporation, San Diego, Calif., USA) without antibiotic was passed into each well coated with Matrigel (Grant, D. S. et al., 1994, Pathol. Res. Pract. 190:854-63). The cells were treated with either Tumstatin, BSA or 7S domain in increasing concentrations. Control cells were incubated with sterile PBS. All assays were performed in triplicate. Cells were incubated for 24-48 hours at 37° C. and viewed using a CK2 Olympus microscope (magnification of 3.3× ocular, 10× objective). The cells were then photographed using 400 DK coated TMAX film (Kodak). Cells were stained with diff-quik fixative (Sigma Chemical Co.) and photographed again (Grant, D. S. et al., 1994, Pathol. Res. Pract. 190:854-63). Ten fields were viewed, and the number of tubes were counted by two investigators unaware of the experimental protocols, and averaged.
Fragments and mutants of Arresten and Canstatin were also made according to the Pseudomonas elastase digestions of Mariyama et al. (1992, J. Biol. Chem. 267:1253-58). The digest was resolved by gel filtration HPLC and the resultant fragments were analyzed by SDS-PAGE and evaluated in the endothelial tube assay described above. These fragments included a 12 kDa fragment of Arresten, an 8 kDa fragment of Arresten, and a 10 kDa fragment of Canstatin. In addition, two fragments of Tumstatin (‘333’ and ‘334’) were generated by PCR cloning.

[7] = 5.0 mg/kg i.p. daily, 3 weeks, T7 vehicle 5.626 ± 0.38, T8 vehicle 6.278 ± 1.483
[8] = 5.0 mg/kg, printed (2x/week) again, once a week in the text

Molecule: KQRFTTMPFLFCNVNDVCNFASRNDYS [T8]
- % Tumor growth inhibition ([1]; 2.5 mg/kg, bid i.p., 26 days): ~49% and 47.91%
- Final Tumor Weight ± SEM ([1]; 2.5 mg/kg, bid i.p., 26 days): 173.6 ± 23.73
- Final Tumor Weight ± SEM ([1]; Dosage 1.9 mg/kg as printed (1 mg/kg in the text), bid i.p., 26 days): 237.8 ± 31.88
- toxicity as judged by weight change ([1]; mouse, in vivo): no toxicity
- Final Tumor Weight (V/Vo) ± SEM ([2]; 5.0 mg/kg (2x/week)): 2.21 ± 0.31
- % Tumor growth inhibition ([2]; 5.0 mg/kg I.P. daily): 31%
- Final Tumor Weight (V/Vo) ± SEM ([2]; 5.0 mg/kg I.P. daily): 2.60 ± 0.38
- % Tumor growth inhibition (PC3 tumor xenografts [3]; 5.0 mg/kg (2x/week)): 8.1%
- Final Tumor Weight (V/Vo) ± SEM (PC3 tumor xenografts [3]; 5.0 mg/kg (2x/week)): 5.770 ± 1.156
- % Tumor growth inhibition (PC3 tumor xenografts [3]; 5.0 mg/kg i.p. daily, 3 weeks): 45%
- Final Tumor Weight (V/Vo) ± SEM (PC3 tumor xenografts [3]; [7]): 3.455 ± 1.228
- % Tumor growth inhibition (PC3 tumor xenografts [3]; [8]): 39.5%
- Final Tumor Weight (V/Vo) ± SEM (PC3 tumor xenografts [3]; [8]): 3.800 ± 1.602
- % Tumor growth inhibition [4]: 50.5%
- Final Tumor Weight (V/Vo) ± SEM ([4]; control 468.5 ± 48.06): 231.9 ± 27.03
- % Tumor growth inhibition (PC3 tumor xenografts [5]): 35.4%
- Final Tumor Weight (V/Vo) ± SEM (PC3 tumor xenografts [5]; control 1070.0 ± 132.5): 691.4 ± 90.52

Molecule: KLFCNVNCVCNFASRNDYS (TP3 (amino acids 76-94 of SEQ ID NO10; lysine has been substituted for the phenylalanine residue at position 76 of the full-length Tumstatin molecule, and cysteine has been substituted for the aspartic acid at position 83))
- Final Tumor Weight (V/Vo) ± SEM ([2]; 1.0 mg/kg I.P. daily): 2.62 ± 0.45
- % Tumor growth inhibition ([2]; 5.0 mg/kg I.P. daily): 50.0%
- Final Tumor Weight (V/Vo) ± SEM ([2]; 5.0 mg/kg I.P. daily): 1.88 ± 0.29
- % Tumor growth inhibition (PC3 tumor xenografts [3]; 5.0 mg/kg i.p. daily, 3 weeks): 53.2%
- Final Tumor Weight (V/Vo) ± SEM (PC3 tumor xenografts [3]; [7]): 2.940 ± 0.636

B1: Tumstatin 333: residues 1 to 124 of full-length Tumstatin (SEQ ID NO:20) (protein)
chain: GLKGKRGDSGSPATWTTRGFVFTRHSQTTAIPSCPEGTVPLYSGFSFLFVQGNQRAHGQDLGTLGSCLQRFTTMPFLFCNVNDVCNFASRNDYSYWLSTPALMPMNMAPITGRALEPYISRCTV
modifications: Tumstatin 333 (amino acids 1-124 of3 SEQ ID NO10)
- ED50 [6]: 0.075 µg/mL

B2: Tumstatin 334: residues 125 to 244 of full-length Tumstatin (SEQ ID NO:21) (protein)
chain: CEGPAIAIAVHSQTTDIPPCPHGWISLWKGFSFIMFTSAGSEGTGQALASPGSCLEEFRASPFLECHGRGTCNYYSNSYSFWLASLNPERMFRKPIPSTVKAGELEKIISRCQVCMKKRH
modifications: Tumstatin 334 (amino acids 125-244 of SEQ ID NO10)
- ED50 [6]: 0.02 µg/mL
